From ChEMBL document CHEMBL4376867 (J Med Chem, 2020) come the findings set out here.

One data set has as its system SK-MEL-2. The experiment in a line: Antiproliferative activity against human SK-MEL-2 cells harboring NRAS/TP53 mutation assessed as reduction in cell viability after 96 hrs by CellTiter-Glo luminescence assay. The following applies: SK-MEL-2, 96 h. It counts as functional, cell-based.
The subject of the next data set is ACHN. The experiment in a line: Antiproliferative activity against human ACHN cells harboring CDKN2A mutation assessed as reduction in cell viability after 96 hrs by CellTiter-Glo luminescence assay. It counts as functional, cell-based. (In general: Cellular ATP, detected with luciferase, serves as a proxy for viable cell number.)
Data set [1] has as its target T1, Receptor-type tyrosine-protein kinase FLT3 (Homo sapiens, UniProt P36888).
T1 sequence (P36888 whole entry): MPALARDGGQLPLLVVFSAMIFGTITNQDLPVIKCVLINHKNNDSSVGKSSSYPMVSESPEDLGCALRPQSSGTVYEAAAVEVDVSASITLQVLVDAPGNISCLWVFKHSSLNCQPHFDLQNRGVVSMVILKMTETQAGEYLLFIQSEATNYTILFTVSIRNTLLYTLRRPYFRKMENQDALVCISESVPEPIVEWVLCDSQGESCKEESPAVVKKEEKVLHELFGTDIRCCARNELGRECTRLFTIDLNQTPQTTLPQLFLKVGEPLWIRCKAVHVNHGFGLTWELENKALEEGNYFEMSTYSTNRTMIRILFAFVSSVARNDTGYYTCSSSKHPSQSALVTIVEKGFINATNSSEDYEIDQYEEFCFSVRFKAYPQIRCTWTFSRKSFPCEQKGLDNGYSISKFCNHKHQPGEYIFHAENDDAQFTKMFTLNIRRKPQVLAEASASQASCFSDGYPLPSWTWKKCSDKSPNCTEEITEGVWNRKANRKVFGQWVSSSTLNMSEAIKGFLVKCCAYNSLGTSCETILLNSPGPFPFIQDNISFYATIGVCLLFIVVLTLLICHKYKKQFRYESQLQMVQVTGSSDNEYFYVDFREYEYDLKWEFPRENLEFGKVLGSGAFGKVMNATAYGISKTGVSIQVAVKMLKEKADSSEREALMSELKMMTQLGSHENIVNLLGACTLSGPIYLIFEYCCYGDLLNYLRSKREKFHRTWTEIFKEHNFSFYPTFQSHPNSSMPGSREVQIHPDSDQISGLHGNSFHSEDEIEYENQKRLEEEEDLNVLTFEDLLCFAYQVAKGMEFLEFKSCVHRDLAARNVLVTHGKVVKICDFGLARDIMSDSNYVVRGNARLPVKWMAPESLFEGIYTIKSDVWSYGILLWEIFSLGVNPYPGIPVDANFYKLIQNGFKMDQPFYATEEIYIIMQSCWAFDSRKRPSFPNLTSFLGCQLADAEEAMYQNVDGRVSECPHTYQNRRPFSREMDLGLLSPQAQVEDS
The data set can be described thus: Inhibition of recombinant human N-terminal GST-tagged FLT3 (564 to end residues) expressed in sf21 cells using biotin labelled Ahx-GGEEEEYFELVKKKK peptide as substrate preincubated with enzyme for 15 mins followed by substrate addition and further incubated for 45 mins in presence of 10 uM of ATP by TR-FRET assay. (In TR-FRET formats the signal depends on donor and acceptor labels being close together.)

Data set [2] deals with Ribosomal protein S6 kinase alpha-6 (Homo sapiens, UniProt Q9UK32). The experiment in a line: Inhibition of recombinant full length human His6-tagged RSK4 expressed in baculovirus infected sf21 cells using biotin labelled Ahx-KKLNRTLSFAEPG peptide as substrate preincubated with enzyme for 15 mins followed by substrate addition and further incubated for 30 mins in presence of 10 uM of ATP by TR-FRET assay.

Data set [3] is described as follows: Apparent permeability of compound across basal to apical membrane in human Caco2 cells at 2 uM in DMSO after 2 hrs by LC-MS/MS analysis. It counts as ADME, cell-based. Particulars: Caco-2. (In general: Caco-2 cells form a polarised layer with tight junctions and transporters.)
Data set [4] deals with T2, Serine/threonine-protein kinase ULK1 (Homo sapiens, UniProt O75385).
T2 sequence (O75385 whole entry): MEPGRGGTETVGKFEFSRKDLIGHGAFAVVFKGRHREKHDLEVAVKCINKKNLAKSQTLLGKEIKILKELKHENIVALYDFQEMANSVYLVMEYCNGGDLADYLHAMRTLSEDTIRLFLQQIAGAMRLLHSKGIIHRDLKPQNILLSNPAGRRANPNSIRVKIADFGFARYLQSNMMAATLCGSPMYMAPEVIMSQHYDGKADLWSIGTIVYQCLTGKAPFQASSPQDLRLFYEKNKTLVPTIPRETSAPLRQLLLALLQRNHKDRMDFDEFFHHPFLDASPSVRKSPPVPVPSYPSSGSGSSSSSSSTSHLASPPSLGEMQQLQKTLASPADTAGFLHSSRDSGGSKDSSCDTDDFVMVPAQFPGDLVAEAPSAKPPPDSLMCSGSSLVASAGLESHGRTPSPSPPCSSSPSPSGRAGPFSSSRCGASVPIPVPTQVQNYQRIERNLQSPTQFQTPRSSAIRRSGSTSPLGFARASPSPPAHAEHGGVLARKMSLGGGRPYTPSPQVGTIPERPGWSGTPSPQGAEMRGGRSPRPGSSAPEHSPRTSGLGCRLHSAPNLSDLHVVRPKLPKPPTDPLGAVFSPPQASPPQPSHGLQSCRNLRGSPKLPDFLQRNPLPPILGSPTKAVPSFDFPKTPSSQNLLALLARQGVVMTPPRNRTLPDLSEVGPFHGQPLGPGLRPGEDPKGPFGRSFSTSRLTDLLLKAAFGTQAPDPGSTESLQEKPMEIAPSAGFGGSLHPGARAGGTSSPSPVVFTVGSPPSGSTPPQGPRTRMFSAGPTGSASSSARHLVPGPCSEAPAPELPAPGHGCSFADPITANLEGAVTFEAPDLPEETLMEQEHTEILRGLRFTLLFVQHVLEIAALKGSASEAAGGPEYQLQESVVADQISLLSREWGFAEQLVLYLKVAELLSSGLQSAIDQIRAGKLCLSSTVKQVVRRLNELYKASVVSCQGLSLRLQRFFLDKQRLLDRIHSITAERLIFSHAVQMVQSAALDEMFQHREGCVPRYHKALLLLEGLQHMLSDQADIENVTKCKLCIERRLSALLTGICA
The experiment in a line: Inhibition of wild-type human partial length ULK1 (M1 to T309 residues) expressed in mammalian expression system.

Chain of Ribosomal protein S6 kinase alpha-6 (Q9UK32 whole entry): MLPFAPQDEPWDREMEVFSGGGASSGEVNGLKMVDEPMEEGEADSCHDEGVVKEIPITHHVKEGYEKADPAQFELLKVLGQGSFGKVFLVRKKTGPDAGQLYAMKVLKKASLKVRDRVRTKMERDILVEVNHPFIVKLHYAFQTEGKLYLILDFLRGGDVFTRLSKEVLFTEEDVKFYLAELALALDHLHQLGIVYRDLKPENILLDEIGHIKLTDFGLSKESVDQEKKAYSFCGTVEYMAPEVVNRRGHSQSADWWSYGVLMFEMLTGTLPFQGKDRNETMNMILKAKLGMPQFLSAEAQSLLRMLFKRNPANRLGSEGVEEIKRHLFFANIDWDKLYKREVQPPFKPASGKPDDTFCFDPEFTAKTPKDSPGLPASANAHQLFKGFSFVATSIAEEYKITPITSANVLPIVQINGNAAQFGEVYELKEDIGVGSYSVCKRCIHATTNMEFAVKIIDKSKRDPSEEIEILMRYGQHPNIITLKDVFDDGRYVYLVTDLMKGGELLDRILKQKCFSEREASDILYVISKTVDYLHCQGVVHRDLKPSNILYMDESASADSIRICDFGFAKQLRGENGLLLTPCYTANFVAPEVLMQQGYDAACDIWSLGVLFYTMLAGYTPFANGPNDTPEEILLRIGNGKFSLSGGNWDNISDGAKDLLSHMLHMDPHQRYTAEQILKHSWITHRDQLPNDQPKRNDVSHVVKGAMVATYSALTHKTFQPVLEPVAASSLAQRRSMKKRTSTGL

In the case of `C[C@H](c1ccnc(Nc2nc3ccc(-c4cnn(CC5CC5)c4)cc3[nH]2)c1)N1CCN(C(=O)CC(F)(F)F)CC1`, the IC50 in the data set with SK-MEL-2 worked out at 408 nM; with ACHN it was 5270 nM; in data set [1] it was 18 nM; in data set [2], 3220 nM; in data set [4], 9 nM. In addition, the Papp B→A at 2 h, 2 µM in data set [3] amounted to 11.8 ×10⁻⁶ cm/s.

As to `C[C@H](c1ccnc(Nc2nc3ccc(-c4cnn(CC5CCC5)c4)cc3[nH]2)c1)N1CCN(C(=O)CC(F)(F)F)CC1`, the IC50 was 3710 nM with SK-MEL-2, 5420 nM in the data set with ACHN, 357 nM in data set [1] and 325 nM in data set [2].

On to `CN(C)c1cc(-c2ccc3nc(Nc4cc(CN5CCN(C(=O)CC(F)(F)F)CC5)ccn4)[nH]c3c2)ncn1`, for which the IC50 with SK-MEL-2 was 246 nM; with ACHN, 9690 nM; in data set [1], 114 nM; in data set [2], 528 nM; in data set [4] it was greater than 10000 nM.

As to `C[C@H](c1ccnc(Nc2nc3ccc(-c4cc(OCC5CC5)ncn4)cc3[nH]2)c1)N1CCN(C(=O)CC(F)(F)F)CC1`, the concentration for half-maximal inhibition (IC50) with SK-MEL-2 came to 470 nM; in the data set with ACHN it was 3870 nM; in data set [1], 13 nM; in data set [2], 1260 nM; in data set [4], 416 nM.

With `O=C(CC(F)(F)F)N1CCN(Cc2ccnc(Nc3nc4ccc(-c5cnn(CC6CC6)c5)cc4[nH]3)c2)CC1`, the half-maximal inhibitory concentration (IC50) with SK-MEL-2 was 221 nM; with ACHN, 7900 nM; in data set [1] it was 9 nM; in data set [2] it was 4120 nM; in data set [4], 28 nM. In addition, the Papp B→A at 2 h, 2 µM in data set [3] stood at 12.5 ×10⁻⁶ cm/s.

On to `Cc1cc(-c2ccc3nc(Nc4cc([C@@H](C)N5CCN(C(=O)CC(F)(F)F)CC5)ccn4)[nH]c3c2)ncn1`, for which the IC50 in the data set with SK-MEL-2 was found to be 476 nM; in the data set on ACHN it was 2010 nM; in data set [1] it was 10 nM; in data set [2] it was 170 nM; in data set [4], 980 nM.

With `CC(C)Oc1cncnc1-c1ccc2nc(Nc3cc([C@@H](C)N4CCN(C(=O)CC(F)(F)F)CC4)ccn3)[nH]c2c1`, the IC50 with SK-MEL-2 is 3970 nM; with ACHN it was 7960 nM; in data set [1], 1 nM; in data set [2] it was 7 nM; in data set [4] it was 263 nM.

In the case of `Cc1noc(-c2ccc3nc(Nc4cc(CN5CCN(C(=O)CC(F)(F)F)CC5)ccn4)[nH]c3c2)n1`, the IC50 in the data set with SK-MEL-2 came out at 2180 nM; with ACHN, 9670 nM; in data set [1], 37 nM; in data set [2], 8910 nM. Further, in data set [3], the Papp B→A at 2 h, 2 µM worked out at 14.2 ×10⁻⁶ cm/s.

Turning to `Cc1noc(-c2ccc3nc(Nc4cc([C@@H](C)N5CCN(C(=O)CC(F)(F)F)CC5)ccn4)[nH]c3c2)n1`, the IC50 with SK-MEL-2 amounted to 3530 nM; in the data set on ACHN, 8980 nM; in data set [1], 30 nM; in data set [2], 2360 nM. Further, the Papp B→A at 2 h, 2 µM in data set [3] was found to be 8.6 ×10⁻⁶ cm/s.

For `COCc1cc(-c2ccc3nc(Nc4cc([C@@H](C)N5CCN(C(=O)CC(F)(F)F)CC5)ccn4)[nH]c3c2)ncn1`, the IC50 in the data set on SK-MEL-2 came out at 883 nM; with ACHN it was 13400 nM; in data set [1], 5 nM; in data set [2], 192 nM; in data set [4] it was 368 nM. In addition, the Papp B→A at 2 h, 2 µM in data set [3] is 21.8 ×10⁻⁶ cm/s.

As to `CNc1cc(-c2ccc3nc(Nc4cc(CN5CCN(C(=O)CC(F)(F)F)CC5)ccn4)[nH]c3c2)ncn1`, the IC50 turned out to be 245 nM in the data set on SK-MEL-2; 29800 nM in the data set on ACHN; 6 nM in data set [1]; 177 nM in data set [2]; 1640 nM in data set [4].

Take `C[C@H](c1ccnc(Nc2nc3ccc(-c4cc(N(C)C)ncn4)cc3[nH]2)c1)N1CCN(C(=O)CC(F)(F)F)CC1` [BAY-985]: the IC50 is 900 nM in the data set with SK-MEL-2; 7260 nM with ACHN; 123 nM in data set [1]; 276 nM in data set [2]; 7930 nM in data set [4]. Also, in data set [3], the Papp B→A at 2 h, 2 µM is 14.6 to 14.7 ×10⁻⁶ cm/s.

The term IC50 denotes the concentration at which inhibition is half-maximal. As usually defined, the Papp B→A is how fast a substance crosses the layer from the basolateral side.
